The values that follow come from US20210183467A1, “SYSTEM AND METHOD FOR USING MICROBIOME TO DE-RISK DRUG DEVELOPMENT” (YALE UNIVERSITY, priority 2018, published 2021).

For one series, the system named is BT4554. Description: B. thetaiotaomicron loss-of-function screen, bt4554 deletion and complementation. Format: in vitro ADME, Bacteroides thetaiotaomicron. An excerpt:
Two independent strategies were developed to identify the microbiome-encoded DMEs responsible for these chemical transformations. For members of the Bacteroides (the most prominent genus in the human gut microbiome in the experiments), Proteobacteria, and other genetically tractable species, Insertion Sequencing (INSeq) is used to make mapped, arrayed transposon mutant libraries as described in Goodman 2009 and Goodman 2011. From these libraries, a representative set of mutants was identified that collectively include disruptions in most non-essential genes. Each mutant was incubated with the pool of drugs metabolized by the parent species. Genes required for drug metabolism by LC-MS were identified as above.
1,352 B. thetaiotaomicron mutants were selected from an arrayed library as described in Goodman 2009 that disrupt ˜70% of its non-essential genes. Each mutant was incubated with a pool of 30 drugs metabolized by this organism. Drug levels were measured over time as above. […] FIGS. 10A-C show two examples: one of these is brivudine, an antiviral whose primary metabolite (bromovinyluracil; BVU) is dangerously toxic for patients taking 5-fluorouracil, a principal therapy for colorectal cancer. With reference to FIGS. 10A-C, transposon mutants representing disruptions in 70% of B. thetaiotaomicron (Bt) non-essential genes were screened for metabolism of 30 drugs targeted by the parent strain.
The contribution of microbial drug metabolism to serum drug and metabolite exposure was directly quantified by specifically modulating this activity in otherwise identical mice. To this end, the capacity of ten individual bacterial species was first determined, representing five major phyla that dominate the mammalian gut microbiota, for their capacity to convert BRV to BVU as illustrated in FIG. 14A. […]
Frozen stocks are re-suspended in 4 mL pre-reduced GMM and incubated anaerobically at 37° C. for 14 h. […] Substrates and reaction product are extracted and quantified by LC-MS as described below. […]

A short description of series [1]: Liver S9 enzyme assay of conversion to BVU. Format: in vitro ADME. Here is the method:
Human and murine S9 liver fractions are purchased from Thermo Fisher Scientific (HMS9L and MSMCPL, respectively). Enzyme assays are performed for the deglycosylation of arabinosyluracil derivatives. In brief, assays are performed at 37° C. Reaction volumes are 150 μL with liver S9 fractions at 5 μg/μL and BRV or SRV at 100 μM in 10 mM phosphate buffer (pH 7.4). Reactions are initiated by addition of drugs to pre-warmed reaction mixture. 10 μL samples are collected and quenched in 10 μL acetonitrile on ice at 0, 5, 10, 15, 20, 30, 45, 60, 90, 120, 180, 270, and 360 min after initiation. Substrates and reaction product are extracted and quantified by LC-MS as described below.

Series [2] deals with human gut microbial communities. Nature of the series: Bacterial conversion assay with fecal microbial communities. The series is classed as in vitro ADME. Conditions: human unfractionated fecal microbial communities. Here is the method: (§1) All handling of human materials is conducted with the permission of the Yale Human Investigation Committee. Samples are collected and stored as described in A. L. Goodman et al., Extensive personal human gut microbiota culture collections characterized and manipulated in gnotobiotic mice, Proceedings of the National Academy of Sciences,108, 6252-6257 (2011), the content of which is incorporated by reference herein. In brief, a single fecal sample is collected from each healthy human donor, stored on ice for less than 12 hours prior to transport into an anaerobic chamber (Coy Laboratory Products) and homogenization in pre-reduced GMM containing 20% glycerol. Aliquots of 0.5 mL volume are anaerobically prepared in 1.8 mL glass E-Z vials (Wheaton Industries) and stored at −80° C. Murine fecal samples are collected from individually caged animals (2 males and 2 females) and are stored at −80° C. without further processing.
(§2) Frozen stocks are re-suspended in 4 mL pre-reduced GMM and incubated anaerobically at 37° C. for 14 h. Cultures are diluted (1:10) in 20% pre-reduced GMM containing BRV or SRV at 100 μM and further incubated at 25° C. anaerobically. […] Substrates and reaction product are extracted and quantified by LC-MS as described below.

The subject of series [3] is murine gut microbial communities. Described as above. Format: in vitro ADME. Conditions: murine unfractionated fecal microbial communities. As for the experimental part:
as §1, §2

Series [4] concerns Bacteroides thetaiotaomicron. Nature of the series: BRV conversion assay with gut isolates. The following applies: among ten bacterial species. Format: in vitro ADME. As for the experimental part: Frozen stocks of bacteria (Table 4) are plated on BHI blood agar and incubated at 37° C. under anaerobic conditions. Single colonies are inoculated into 4 mL pre-reduced GMM and incubated anaerobically at 37° C. for 24 h (Akkermansia muciniphila for 48 hours). BRV conversion assays are performed with the resulting dense cultures, as described above for bacterial communities.

The conditions of series [5]: model parameter; Clinical Virology 3rd edition, 2009; cited from earlier work.

On to `O=c1[nH]c(=O)n([C@H]2C[C@H](O)[C@@H](CO)O2)cc1/C=C/Br` [BRV, Brivudine], for which the “role of bt4554 in BRV conversion to BVU” value in the series on BT4554 (targeted gene deletion and complementation at different expression levels) is “necessary and sufficient”. Moreover, the “conversion to BVU by mutant in BT4554” value in the series with BT4554 (transposon mutant, recapitulated by nonpolar deletion) was “unable to convert”. Further, the “conversion of BRV to BVU” value in series [1] (human S9 liver fractions), in series [1] (murine S9 liver fractions), in series [2] and in series [3] was “stoichiometric conversion to BVU” each time. Moreover, in series [4], the “capacity to convert BRV to BVU” value is on record as “highest metabolic activity”. Further, the “F, bioavailability of the drug” value in series [5] is recorded as 0.3 fraction.
